In PubChem BioAssay AID2305 (GlaxoSmithKline (GSK), 2010):
“And” between values parts separate entries of the source, which are not always exact repeats. Equal values may be shown once.

The molecules below were run on P. falciparum 3D7 growth, pLDH absorbance (assay: blood-stage malaria parasite growth potency – strain 3D7, dose response (AID 2305)).
Cc1noc(C)c1-c1cccc(CNCc2cccc(-c3ccc(-c4nc5ccccc5[nH]4)cc3)c2)c1 gave an IC50 of 230 nM. CC(Cc1ccc(OCCOc2ccccc2)cc1)NCC(O)c1cccc(Cl)c1 (stereo not drawn) showed an IC50 of 1040 nM. CCOC(=O)c1ccc(NC(=O)Nc2ccc(-c3cccc(-c4nc5ccc(F)cc5[nH]4)c3)cc2)cc1 showed an IC50 of 120 nM. CN(C)CCN(C)Cc1cccc(-c2ccc3c(Nc4ccc(F)cc4Cl)ccnc3c2)c1 gave an IC50 of 110 nM. Work on CC(=O)Nc1nc(C(=O)Nc2cccc(-c3ccc4c(cnn4CC4CC4)c3)c2)cs1 yielded an IC50 of 740 nM. For Cc1ccc(C(=O)Nc2ccc(F)c(F)c2F)cc1S(=O)(=O)N1CCCCC1, the IC50 was 760 nM. With N#Cc1ccc2c(c1)CCN(CCCn1c(-c3ccc4ccccc4c3)nc3ccncc31)CC2 the IC50 was 200 nM. Work on O=C(Nc1cccc(-c2ccc(-c3nc4ccc(F)cc4[nH]3)cc2)c1)c1ccoc1 yielded an IC50 of 960 nM. CCSc1nc2sc3c(c2c(=O)n1-c1ccccc1)CCN(C)C3 gave an IC50 of 460 nM. Work on Cc1cc(N[C@@H](Cc2ccccc2)C(=O)NC2CCCC2)nc(NCC2CCCCC2)n1 yielded an IC50 of 1170 nM. O=C(Nc1cccc(C(F)(F)F)c1)Nc1ccc(Cl)c(C(F)(F)F)c1 was tested, and the IC50 was 890 nM. With CCCNCc1c(O)ccc2c(CNCCC)c(O)ccc12 the IC50 was 600 nM. COc1cc(Cc2cnc(N)nc2N)cc(OCCCCNS(=O)(=O)C(F)(F)F)c1OC showed an IC50 of 1040 nM. Work on CC(=O)Nc1cccc(C(=O)Nc2ccc(-c3cccc(-c4nc5c(C)cccc5[nH]4)c3)cc2)c1 yielded an IC50 of 790 nM. Cc1nc(-c2nc(NCCc3c(C)noc3C)ncc2-c2ccsc2)sc1C was tested, and the IC50 was 260 nM. O=C1OC2(CN1CC1CCN(Cc3ccc(O)c(Cl)c3)CC1)c1ccccc1-c1ccccc12 was tested, and the IC50 was 760 nM. COc1ccc(Oc2ccccc2CNCC2CCN(CC3CCCCC3)CC2)cc1 was tested, and the IC50 was 900 nM. CCCNCc1ccc(-c2ccc(CN(CCOC)C(=O)c3nn(-c4ccccc4)nc3C)cc2)nc1 showed an IC50 of 730 nM. Molecule COc1ccc(C2CC(=O)C3=C(C2)NC(C)=C(C(=O)OC(C)C)C3c2c(F)cccc2Cl)cc1OC (stereo not drawn) has an IC50 of 820 nM. c1ccc(Oc2ccc(Nc3nncc4ccccc34)cc2)cc1 gave an IC50 of 690 nM. For Cc1cc(OCCCN2CCC(NS(=O)(=O)c3cc(Br)c(Cl)s3)CC2)c2ccccc2n1, the IC50 was 850 nM. O=C(c1ccc([N+](=O)[O-])o1)N1CCN(c2nc3c(Cl)cccc3s2)CC1 gave an IC50 of 980 nM. For CCCCCN1CCC(CNS(=O)(=O)c2ccc(C(=O)Nc3cccc(C(F)(F)F)c3)cc2)CC1, the IC50 was 750 nM. For CCOC(=O)CCCN1C(=O)CN=C(c2ccccc2)c2cc(Cl)ccc21, the IC50 was 780 nM. Cc1cc(NC2CCCC2)nc(Nc2ccc(F)cc2)n1 gave an IC50 of 470 nM. CCc1cn2c3c(cc(C(=O)N[C@@H](Cc4cccc(F)c4)[C@H](O)CNC4CCOCC4)cc13)N(C)S(=O)(=O)CC2 was tested, and the IC50 was 70 nM. Cn1ccc(C(=O)Nc2ccc3c(c2)CN(Cc2ccc(N4CCCC4)o2)CCC3)n1 showed an IC50 of 1310 nM. Work on CC(=O)Nc1ccc(NC(=O)c2cc(-c3ccc(C)cc3O)n[nH]2)cc1 yielded an IC50 of 490 nM. In the case of CC(C)N1CCC(N(Cc2ccc(-c3ccc(C(F)(F)F)cc3)cc2)C(=O)Cn2c(SCc3cccc(F)c3F)cc(=O)c3ccccc32)CC1, the IC50 is reported as 820 nM. Molecule Cc1cc2[nH]c(-c3ccc(C(=O)NCCCN4CCN(c5cccc(Cl)c5)CC4)cc3F)nc2cc1Cl has an IC50 of 480 nM. Work on Cc1ccc(F)cc1S(=O)(=O)Nc1ccc(CCN2CCC(N3CCCCC3)CC2)cc1 yielded an IC50 of 720 nM. In the case of CCCN1CCC2(CC1)NC(C(=O)NCCC(C)C)Cc1c2[nH]c2cc(Cl)ccc12 (stereo not drawn), the IC50 is reported as 1380 nM. O=C(NCCCCN1CCC(c2ccc3c(c2OCCCO)CCCC3)CC1)c1ccc(-c2ccc(C(F)(F)F)cc2)cc1 showed an IC50 of 720 nM. COc1ccc2nccc([C@@H](O)CN3CCC(NCc4cc5c(F)ccc(F)c5[nH]4)CC3)c2c1 was tested, and the IC50 was 140 nM. With O=C(NCCCCCN1CCC(c2c[nH]c3ccccc23)CC1)Nc1ccc(Br)cc1 the IC50 was 920 nM. Molecule COc1ccc(CNCc2ccc(-c3ccc(-c4nc5ccc(F)cc5[nH]4)cc3)cc2)cc1 has an IC50 of 250 nM. Molecule CCN(CC)C(=NCCCCCCN=C(/N=C(/N)Nc1ccc(Br)cc1)N(CC)CC)/N=C(/N)Nc1ccc(Br)cc1 has an IC50 of 380 nM. Cc1ccc2c(c1)c(C1CCN(C(=O)c3ccc([N+](=O)[O-])o3)CC1)cn2C gave an IC50 of 750 nM. CCOc1ccc(-c2nonc2NC(=O)c2ccc(OC(C)C)cc2)cc1OCC gave an IC50 of 600 nM. Cc1nc(N)nc(N)c1-c1ccc(Br)cc1 was tested, and the IC50 was 230 nM. CN1CCN(c2ccnc3cc4c(cc23)N(Cc2ccccc2)CC4)CC1 was tested, and the IC50 was 1140 nM. CC(=O)c1c[nH]c(C(=O)Nc2ccc(-c3cn4ccccc4n3)cc2)c1 showed an IC50 of 890 nM. For Cc1ccc2c(c1)NC[C@@]21CCN(C[C@@H](O)C2CCN(c3cc(C#N)ccn3)CC2)C[C@@H]1C, the IC50 was 610 nM. With COc1c(C2CCN(CCCCNC(=O)c3ccc(-c4ccc(C#N)cc4)c(O)c3)CC2)ccc2c1CCCC2 the IC50 was 200 nM. O=C(CSc1ccccn1)Nc1c(F)cccc1F showed an IC50 of 1210 nM. Work on N[C@@H](COc1cccc2c(-c3ccncc3)c(-c3cccc(NC(=O)Nc4ccccc4)c3)nn12)c1ccccc1 yielded an IC50 of 410 nM. With O=C(/C=C/c1ccc(Cl)c(Cl)c1)NC1CCC(CN2CCC(c3c[nH]c4ccc(O)cc34)CC2)CC1 (stereo not drawn) the IC50 was 140 nM and 420 nM. Work on O=C(NCCCCN1CC[C@@H]2c3cccc(O)c3CC[C@H]21)c1ccc(-c2ccccc2)cc1 yielded an IC50 of 1380 nM.
